Results taken from EP0054873A1, “3,4-Di-substituted 1,2,5-oxadiazole-2 oxides, method for their preparation and pharmaceutical compositions containing them” (CASSELLA Aktiengesellschaft, priority 1980, dated 1982).

Tested on: Bastardhunden
Test: Haemodynamic study of antianginal and antihypertensive effect in anaesthetised mongrel dogs
Format: in vivo
Conditions: change from steady state
Method: Die Untersuchungen über die antianginöse und antihypertensive Wirkung der Verbindungen der Formel I wurden an Bastardhunden beiderlei Geschlechts in Pentobarbital-Narkose (30 bis 40 mg/kg i.v.) oder in Urethan-Chloralose-Narkose (3 ml/kg Urethan-Chloralose-Gemisch i.v. = 20 mg/kg Chloralose und 250 mg/kg Urethan) durchgeführt. Die Beatmung der Tiere erfolgte mit einem Bird-Mark-7-Respi- rator. […] Während des gesamten Versuchs erhielten die Tiere mit Pentobarbital-Narkose eine Dauerinfusion von Pentobarbital i.v. = 4 mg/kg/6ml/h, um eine konstante Narkosetiefe zu gewährleisten; die Tiere mit Urethan-Chloralose-Narkose erhielten keine Dauerinfusion. Die Infusion wurde durch die Vena cephalica gegeben. Nach der Präparation des Versuchstieres wurde ca. 1 Stunde gewartet, bis sich alle haemodynamischen Parameter eingestellt hatten (steady state). Danach wurde mit dem eigentlichen Versuch begonnen.
Der systolische und diastolische Blutdruck wurde peripher in der Arteria femoralis über einen Statham-Druckaufnehmer gemessen. Ein über die Arteria carotis in den linken Ventrikel geschobener Millar-Tip-Katheter lieferte das Signal für den LVEDP(linksvcntrikulärer enddiastolischer Druck) und die Herzfrequenz. Mit einem zweiten, über die Vena ju-fularis eingeschobenen Tip-Katheter wurde der mittlere Blutdruck in der Arteria pulmonalis erfaßt. Die erhaltenen Ergebnisse sind in der folgenden Tabelle angegeben.

Question: `Cc1c(C(=O)NCc2cccnc2)no[n+]1[O-]` [C] was tested. Which “BDm Δ (mittlerer peripherer Blutdruck)” value (Dosis 0,05 mg/kg i.v.) did it give?
Answer: Its value is -35 mmHg.

Question: What about the “LVEDP Δ (linksventrikulärer enddiastolischer Druck)” value (Dosis 0,05 mg/kg i.v.) of the same compound?
Answer: The value was -2 mm/Hg.

Question: And the “PAP Δ (mittlerer Pulmonalarteriendruck)” value (Dosis 0,05 mg/kg i.v.)?
Answer: Its value is -1 mmHg.

Question: With `COCCNC(=O)c1no[n+]([O-])c1C` [B] as the compound, how does the “BDm Δ (mittlerer peripherer Blutdruck)” value (Dosis 0,1 mg/kg i.v.) read?
Answer: Its value is -25 mmHg.

Question: And the “LVEDP Δ (linksventrikulärer enddiastolischer Druck)” value (Dosis 0,1 mg/kg i.v.)?
Answer: Its value is -2,5 mm/Hg.

Question: What about the “PAP Δ (mittlerer Pulmonalarteriendruck)” value (Dosis 0,1 mg/kg i.v.) of the same compound?
Answer: Its value is -1 mmHg.

Question: Which results are given for `CNC(=O)c1c(C)no[n+]1[O-]` [A]?
Answer: BDm Δ (mittlerer peripherer Blutdruck) (Dosis 0,05 mg/kg i.v.): -30 mmHg; LVEDP Δ (linksventrikulärer enddiastolischer Druck) (Dosis 0,05 mg/kg i.v.): -3 mm/Hg; PAP Δ (mittlerer Pulmonalarteriendruck) (Dosis 0,05 mg/kg i.v.): -2 mmHg
